# Measurements published in US20160272635A1, “SUBSTITUTED DIHYDROPYRIDO[3,4-B]PYRAZINONES AS DUAL INHIBITORS OF BET PROTEINS AND POLO-LIKE KINASES” (BAYER PHARMA AKTIENGESELLSCHAFT, priority 2013, published 2016).
# Where two headings read alike, the source gives them in different places.
# Assays:
# [1] = molecular target: T1, BRD4 bromo domain 1 [BRD4(1)] (Homo sapiens, UniProt O60885); assay: BRD4(1)/acetylated peptide H4 binding assay (TR-FRET); conditions: inhibition of interaction between BRD4(1) and acetylated histone H4 peptide
# T1 construct: N-terminally His6-tagged BRD4(1) (amino acids 67-152); made in house; host or cells: E. coli
# Excerpt: To assess the BRD4(1) binding strength of the substances described in this application, the ability thereof to inhibit the interaction between BRD4(1) and acetylated histone H4 in a dose-dependent manner was quantified.
# For this purpose, a time-resolved fluorescence resonance energy transfer (TR-FRET) assay was used, which measures the binding between N-terminally His6-tagged BRD4(1) (amino acids 67-152) and a synthetic acetylated histone H4 (Ac-H4) peptide with sequence GRGK(Ac)GGK(Ac)GLGK(Ac)GGAK(Ac)RHGSGSK-biotin. The recombinant BRD4(1) protein produced in-house according to Filippakopoulos et al., Cell, 2012, 149:214-231 was expressed in E. coli and purified by means of (Ni-NTA) affinity and (Sephadex G-75) size exclusion chromatography. The Ac-H4 peptide can be purchased, for example, from Biosyntan (Berlin, Germany).
# In the assay, typically 11 different concentrations of each substance (0.1 nM, 0.33 nM, 1.1 nM, 3.8 nM, 13 nM, 44 nM, 0.15 μM, 0.51 μM, 1.7 μM, 5.9 μM and 20 μM) were analysed as duplicates on the same microtitre plate. For this purpose, 100-fold concentrated solutions in DMSO were prepared by serial dilutions (1:3.4) of a 2 mM stock solution into a clear, 384-well microtitre plate (Greiner Bio-One, Frickenhausen, Germany). From this, 50 n1 were transferred into a black test plate (Greiner Bio-One, Frickenhausen, Germany). The test was started by the addition of 2 μl of a 2.5-fold concentrated BRD4(1) solution (final concentration typically 10 nM in the 5 μl of reaction volume) in aqueous assay buffer [50 mM HEPES pH 7.5, 50 mM sodium chloride (NaCl), 0.25 mM CHAPS and 0.05% serum albumin (BSA)] to the substances in the test plate. This was followed by a 10-minute incubation step at 22° C. for the pre-equilibration of putative complexes between BRD4(1) and the substances.
# The mixture was then incubated in the dark at 22° C. for one hour and then at 4° C. for at least 3 hours and for no longer than overnight. The formation of BRD4(1)/Ac-H4 complexes was determined by the measurement of the resonance energy transfer from the streptavidin-Eu cryptate to the anti-6His-XL665 antibody present in the reaction. For this purpose, the fluorescence emission was measured at 620 nm and 665 nm after excitation at 330-350 nm in a TR-FRET measuring instrument, for example a Rubystar or Pherastar (both from BMG Lab Technologies, Offenburg, Germany) or a Viewlux (Perkin-Elmer). The ratio of the emissions at 665 nm and at 622 nm was taken as an indicator of the amount of BRD4(1)/Ac-H4 complexes formed.
# The data (ratios) obtained were normalized, with 0% inhibition corresponding to the mean from the measurements for a set of controls (typically 32 data points) in which all the reagents were present. In these, in place of test substances, 50 nl of DMSO (100%) were used Inhibition of 100% corresponded to the mean from the measurements for a set of controls (typically 32 data points) in which all the reagents except BRD4(1) were present. The IC50 was determined by regression analysis based on a 4-parameter equation (minimum, maximum, IC50, Hill; Y=Max+(Min−Max)/(1+(X/IC50)Hill).
# [2] = molecular target: T2, Plk-1 (Homo sapiens, UniProt P53350); assay: Plk-1 enzyme assay (indirect HTRF kinase assay); type: biochemical
# T2 construct: Recombinant fusion protein consisting of GST and Plk (kinase domain 33-345); MW 36 kDa; GST; made in house; host or cells: insect cells (Hi5)
# Description: Recombinant fusion protein consisting of GST and Plk (kinase domain 33-345; MW 36 kDa, conc 0.8 μg/μl) expressed from insect cells (Hi5) and purified by glutathione Sepharose affinity chromatography and subsequent gel filtration (Superdex 75) is used for the kinase assay. Aliquots thereof are frozen in liquid nitrogen and stored at −80° C. and, after thawing, used only once.
# The assay used is an indirect HTRF assay which employs the following materials and procedures. The substrate used for the kinase reaction is the biotinylated peptide Btn-Ahx-KKLNRTLSFAEPG-amide x TFA from Biosyntan, Sample No.: 6178.1 (C-terminus in amide form). This is an artificial sequence not derived from any known protein. 50 nl of the test compounds dissolved in 100% dimethyl sulphoxide (DMSO) (final concentrations: 0 μM and concentrations in the range of 0.001-20 μM) are pre-incubated with 2 μl Plk-1 enzyme working solution in working buffer [25 mM MgCl2; 1 mM DTT; 50 mM Hepes pH 7.0; 0.01% NP40; 1× Complete; 0.05% BSA] for 30 min. The kinase reaction is then initiated by addition of 3 μl of substrate solution [adenosine triphosphate (ATP) and 1.4 μM substrate peptide (biotin-Ttds-KKLNRTLSFAEPG-NH2)] in working buffer, and, after 30 min, stopped by addition of a stopper solution (100 mM EDTA, 100 mM Hepes pH 7.5, 800 mM potassium fluoride, 0.12% BSA, 0.4 μM SA-XLent (0.05 μM, from CIS bio international, Marcoule, France), Eu^3+ cryptate-conjugated rabbit anti-mouse IgG (1.5 nM; an anti-mouse IgG antibody labelled with europium cryptate from CIS bio international, Marcoule, France), 1 nM anti-phospho-serine kinase (a phospho-specific antibody from Upstate Biotechnology, Dundee, Scotland), and incubated at 4° C. overnight.
# For the test at low ATP concentration, a 1.25 ng/μl Plk-1 working solution and 16.7 μM ATP are used, for the test at high ATP concentration, a 0.039 ng/μl Plk-1 working solution and 16.7 mM ATP are used.
# The amount of phosphorylated substrate peptide is then determined by measuring the resonance energy transfer from europium-labelled antibody complex to streptavidine-XLent. To this end, the fluorescence emission at 620 nm and 665 nm is measured following excitation at 350 nm in an HTRF measuring instrument, e.g. Rubystar (BMG Labtechnologies, Offenburg, Germany) or Viewlux (Perkin-Elmer). The ratio of the emissions at 665 nm and at 620 nm is taken as a measure of the amount of phosphorylated substrate peptide. The data are normalized (enzyme reaction without inhibitor=0% inhibition, all other assay components, but no enzyme=100% inhibition), and IC50 values are calculated using a 4 parameter equation (minimum, maximum, IC50, Hill; Y=max+(min−max)/(1+(X/IC50)Hill)).
# [3] = system: MOLM-13 cell line; assay: MOLM-13 cell proliferation assay (alamarBlue); type: cell-based; conditions: Homo sapiens; MOLM-13 cells, 96 hours incubation, inhibition of cell proliferation
# Description: In accordance with the invention, the substances were tested for their ability to inhibit the proliferation of the MOLM-13 cell linie (Deutsche Sammlung far Mikroorganismen and Zellkulturen [German Collection of Microorganisms and Cell Cultures], ACC 554). Cell viability was determined by means of the alamarBlue® reagent (Invitrogen) in a Victor X3 Multilabel Reader (Perkin Elmer). The excitation wavelength was 530 nm and the emission wavelength […].
# The MOLM-13 cells were shown at a density of 4000 cells/well in 100 μl of growth medium on 96-well microtitre plates. After overnight incubation at 37° C., the fluorescence values (CI values) were determined. The plates were then treated with various substance dilutions and incubated at 37° C. for 96 hours. Subsequently, the fluorescence values were determined (CO values). For the data analysis, the CI values were subtracted from the CO values and the results were compared between cells which had been treated with various dilutions of the substance or only with buffer solution. The IC50 values (substance concentration needed for 50% inhibition of cell proliferation) were calculated therefrom.
# [4] = 10 mM ATP (high ATP concentration), read-out: IC50 [Plk-1] (10 mM ATP)
# [5] = 10 μM ATP (low ATP concentration), read-out: IC50 [Plk-1] (10 μM ATP)
# T2 sequence (P53350 33-345): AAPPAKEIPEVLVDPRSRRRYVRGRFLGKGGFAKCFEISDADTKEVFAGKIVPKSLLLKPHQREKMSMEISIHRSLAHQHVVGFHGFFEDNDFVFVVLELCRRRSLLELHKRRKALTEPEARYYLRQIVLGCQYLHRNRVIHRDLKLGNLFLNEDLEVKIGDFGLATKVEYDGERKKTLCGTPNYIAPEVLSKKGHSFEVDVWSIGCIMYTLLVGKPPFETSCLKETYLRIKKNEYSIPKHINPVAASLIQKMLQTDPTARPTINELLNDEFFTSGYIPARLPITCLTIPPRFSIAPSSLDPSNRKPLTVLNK
IC50 [1],"IC50 [2, 4]",IC50 [3],"IC50 [2, 5]",SMILES
424 nM,23 nM,52 nM,,"CC[C@@H]1C(=O)N(C)c2cnc(Nc3ncc(C(=O)NCc4cccnc4)cc3OC)cc2N1C1CCCC1 [Example 12, 6-[[(2R)-1-Cyclopentyl-2-ethyl-1,2,3,4-tetrahydro-4-methyl-3-oxopyrido[3,4-b]pyrazin-7-yl]amino]-5-methoxy-N-(3-pyridinylmethyl)-3-pyridinecarboxamide]"
434 nM,15 nM,56 nM,7 nM,"CC[C@@H]1C(=O)N(C)c2cnc(Nc3ncc(C(=O)NC4CC4)cc3C)cc2N1C1CCCC1 [Example 13, 6-{[(2R)-1-Cyclopentyl-2-ethyl-4-methyl-3-oxo-1,2,3,4-tetrahydropyrido[3,4-b]pyrazin-7-yl]amino}-N-cyclopropyl-5-methylpyridine-3-carboxamide]"
458 nM,29 nM,32 nM,11 nM,"CC[C@@H]1C(=O)N(C)c2cnc(Nc3ncc(C(=O)NC4CCN(C)CC4)cc3OC)cc2N1C1CCCC1 [Example 14, 6-[[(2R)-1-Cyclopentyl-2-ethyl-1,2,3,4-tetrahydro-4-methyl-3-oxopyrido[3,4-b]pyrazin-7-yl]amino]-5-methoxy-N-(1-methyl-4-piperidinyl)-3-pyridinecarboxamide]"
496 nM,22 nM,77 nM,13 nM,CC[C@@H]1C(=O)N(C)c2cnc(Nc3ncc(C(=O)N[C@@H]4CCCCNC4=O)cc3C)cc2N1C1CCCC1 [Example 15]
525 nM,22 nM,77 nM,,"CC[C@@H]1C(=O)N(C)c2cnc(Nc3ncc(C(=O)N[C@@H]4CCCCNC4=O)cc3OC)cc2N1C1CCCC1 [Example 16, 6-[[(2R)-1-Cyclopentyl-2-ethyl-1,2,3,4-tetrahydro-4-methyl-3-oxopyrido[3,4-b]pyrazin-7-yl]amino]-N-[(3R)-hexahydro-2-oxo-1H-azepin-3-yl]-5-methoxy-3-pyridinecarboxamide]"
539 nM,14 nM,55 nM,8 nM,"CC[C@@H]1C(=O)N(C)c2cnc(Nc3ncc(C(=O)NC4CCOCC4)cc3C)cc2N1C1CCCC1 [Example 17, 6-{[(2R)-1-Cyclopentyl-2-ethyl-4-methyl-3-oxo-1,2,3,4-tetrahydropyrido[3,4-b]pyrazin-7-yl]amino}-5-methyl-N-(tetrahydro-2H-pyran-4-yl)pyridine-3-carboxamide]"
649 nM,7 nM,42 nM,,"CC[C@@H]1C(=O)N(C)c2cnc(Nc3ncc(C(=O)NC4CCN(C)CC4)cc3C)cc2N1C1CCCC1 [Example 18, 6-[[(2R)-1-Cyclopentyl-2-ethyl-1,2,3,4-tetrahydro-4-methyl-3-oxopyrido[3,4-b]pyrazin-7-yl]amino]-5-methyl-N-(1-methyl-4-piperidinyl)pyridine-3-carboxamide]"
732 nM,99 nM,362 nM,,"CC[C@@H]1C(=O)N(C)c2cnc(Nc3ncc(C4=NC(C)(C)CO4)cc3OC)cc2N1C1CCCC1 [Example 19, 1N-Cyclopentyl-7-[[5-(4,5-dihydro-4,4-dimethyl-2-oxazolyl)-3-methoxy-2-pyridinyl]amino]-(2R)-ethyl-4N-methyl-1,4-dihydropyrido[3,4-b]pyrazin-3(2H)-one]"
878 nM,35 nM,101 nM,,"CC[C@@H]1C(=O)N(C)c2cnc(Nc3ncc(C(=O)NC4CCCCC4)cc3OC)cc2N1C1CCCC1 [Example 20, N-Cyclohexyl-6-[[(2R)-1-cyclopentyl-2-ethyl-1,2,3,4-tetrahydro-4-methyl-3-oxopyrido[3,4-b]pyrazin-7-yl]amino]-5-methoxypyridine-3-carboxamide]"
